Measurements published in PubChem BioAssay (NCI).
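The compound was tested at five concentrations on cells cultured in 96-well plates, with a 48-hour exposure period. GI50: concentration for 50% inhibition of growth. TGI marks complete inhibition of growth.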

Columns and labels:
Assay in all cases: NCI-60 cell line screen, 48 h
UO-31 renal = test system: UO-31 renal
U251 CNS = test system: U251 CNS
HS 578T breast = test system: HS 578T breast
SF-295 CNS = test system: SF-295 CNS
OVCAR-8 ovarian = test system: OVCAR-8 ovarian
MCF7 breast = test system: MCF7 breast
COLO 205 colon = test system: COLO 205 colon
HT29 colon = test system: HT29 colon
SK-OV-3 ovarian = test system: SK-OV-3 ovarian
ACHN renal = test system: ACHN renal
HL-60(TB) leukemia = test system: HL-60(TB) leukemia
NCI-H23 lung = test system: NCI-H23 lung
SK-MEL-2 melanoma = test system: SK-MEL-2 melanoma
SW-620 colon = test system: SW-620 colon
EKVX NSCLC = test system: EKVX NSCLC
SF-539 CNS = test system: SF-539 CNS
SK-MEL-5 melanoma = test system: SK-MEL-5 melanoma
RPMI-8226 leukemia = test system: RPMI-8226 leukemia
DU-145 prostate = test system: DU-145 prostate
CAKI-1 renal = test system: CAKI-1 renal
SF-268 CNS = test system: SF-268 CNS
IGROV1 ovarian = test system: IGROV1 ovarian
PC-3 prostate = test system: PC-3 prostate
MALME-3M melanoma = test system: MALME-3M melanoma
MDA-MB-231 breast = test system: MDA-MB-231 breast
HCC-2998 colon = test system: HCC-2998 colon
BT-549 breast = test system: BT-549 breast
NCI-H522 lung = test system: NCI-H522 lung
NCI-H460 lung = test system: NCI-H460 lung
CCRF-CEM leukemia = test system: CCRF-CEM leukemia
HCT-116 colon = test system: HCT-116 colon
HCT-15 colon = test system: HCT-15 colon
T-47D breast = test system: T-47D breast
MDA-N = test system: MDA-N
HOP-62 NSCLC = test system: HOP-62 NSCLC
786-0 renal = test system: 786-0 renal
SK-MEL-28 melanoma = test system: SK-MEL-28 melanoma
A498 renal = test system: A498 renal
M14 melanoma = test system: M14 melanoma
SNB-19 CNS = test system: SNB-19 CNS
MOLT-4 leukemia = test system: MOLT-4 leukemia
SN12C renal = test system: SN12C renal
OVCAR-5 ovarian = test system: OVCAR-5 ovarian
A549 NSCLC = test system: A549 NSCLC
KM12 colon = test system: KM12 colon
MDA-MB-435 = test system: MDA-MB-435
RXF 393 renal = test system: RXF 393 renal
TK-10 renal = test system: TK-10 renal
OVCAR-3 ovarian = test system: OVCAR-3 ovarian
UACC-257 melanoma = test system: UACC-257 melanoma
UACC-62 melanoma = test system: UACC-62 melanoma
OVCAR-4 ovarian = test system: OVCAR-4 ovarian
LOX IMVI melanoma = test system: LOX IMVI melanoma
NCI/ADR-RES ovarian = test system: NCI/ADR-RES ovarian
K-562 leukemia = test system: K-562 leukemia
SNB-75 CNS = test system: SNB-75 CNS
SR leukemia = test system: SR leukemia
NCI-H226 lung = test system: NCI-H226 lung
HOP-92 NSCLC = test system: HOP-92 NSCLC

Compound O=C1C2C(C(=O)N1c1ccccc1)C1(c3ccccc3)CCC2(C(=O)c2ccccc2)O1 (stereo not given) has a TGI (UO-31 renal) of over 10 µM, a TGI (U251 CNS) of over 10 µM and a TGI (HS 578T breast) of over 10 µM. For the same compound, the TGI (SF-295 CNS) was over 10 µM, the TGI (OVCAR-8 ovarian) was over 10 µM and the TGI (MCF7 breast) was over 10 µM. For the same compound, the TGI (COLO 205 colon) was over 10 µM, the TGI (HT29 colon) was over 10 µM and the TGI (SK-OV-3 ovarian) was over 10 µM. For the same compound, the TGI (ACHN renal) was over 10 µM, the TGI (HL-60(TB) leukemia) was over 10 µM and the TGI (NCI-H23 lung) was over 10 µM. For the same compound, the TGI (SK-MEL-2 melanoma) was over 10 µM, the TGI (SW-620 colon) was over 10 µM and the TGI (EKVX NSCLC) was over 10 µM. It also gave a TGI (SF-539 CNS) of over 10 µM, a TGI (SK-MEL-5 melanoma) of over 10 µM and a TGI (RPMI-8226 leukemia) of over 10 µM. It also gave a TGI (DU-145 prostate) of over 10 µM, a TGI (CAKI-1 renal) of over 10 µM and a TGI (SF-268 CNS) of over 10 µM. The TGI (IGROV1 ovarian) was over 10 µM, the TGI (PC-3 prostate) was over 10 µM and the TGI (MALME-3M melanoma) was over 10 µM. The TGI (MDA-MB-231 breast) was over 10 µM, the TGI (HCC-2998 colon) was over 10 µM and the TGI (BT-549 breast) was over 10 µM. For the same compound, the TGI (NCI-H522 lung) was over 10 µM, the TGI (NCI-H460 lung) was over 10 µM and the TGI (CCRF-CEM leukemia) was over 10 µM. It also gave a TGI (HCT-116 colon) of over 10 µM, a TGI (HCT-15 colon) of over 10 µM and a TGI (T-47D breast) of over 10 µM. It also gave a TGI (MDA-N) of over 10 µM, a TGI (HOP-62 NSCLC) of over 10 µM and a TGI (786-0 renal) of over 10 µM. It also gave a TGI (SK-MEL-28 melanoma) of over 10 µM, a TGI (A498 renal) of over 10 µM and a TGI (M14 melanoma) of over 10 µM. It also gave a TGI (SNB-19 CNS) of over 10 µM, a TGI (MOLT-4 leukemia) of over 10 µM and a TGI (SN12C renal) of over 10 µM. For the same compound, the TGI (OVCAR-5 ovarian) was over 10 µM, the TGI (A549 NSCLC) was over 10 µM and the TGI (KM12 colon) was over 10 µM. The TGI (MDA-MB-435) was over 10 µM, the TGI (RXF 393 renal) was over 10 µM and the TGI (TK-10 renal) was over 10 µM. For the same compound, the TGI (OVCAR-3 ovarian) was over 10 µM, the TGI (UACC-257 melanoma) was over 10 µM and the TGI (UACC-62 melanoma) was over 10 µM. The TGI (OVCAR-4 ovarian) was over 10 µM, the TGI (LOX IMVI melanoma) was over 10 µM and the TGI (NCI/ADR-RES ovarian) was over 10 µM.
Work on Oc1c(Cl)cc(Cl)c(Cl)c1CNCCNCc1c(O)c(Cl)cc(Cl)c1Cl yielded a GI50 (UO-31 renal) of 0.625 µM, a TGI (UO-31 renal) of 6.42 µM and a GI50 (K-562 leukemia) of 0.483 µM. For the same compound, the TGI (K-562 leukemia) was over 50 µM, the GI50 (U251 CNS) was 0.556 µM and the TGI (U251 CNS) was 6.61 µM. The GI50 (HS 578T breast) was 5.32 µM, the TGI (HS 578T breast) was 27.9 µM and the GI50 (SF-295 CNS) was 1.26 µM. The TGI (SF-295 CNS) was 20.3 µM, the GI50 (OVCAR-8 ovarian) was 0.911 µM and the TGI (OVCAR-8 ovarian) was 7.72 µM. For the same compound, the GI50 (MCF7 breast) was 1.12 µM, the TGI (MCF7 breast) was 14.5 µM and the GI50 (COLO 205 colon) was 1.09 µM. It also gave a TGI (COLO 205 colon) of over 50 µM, a GI50 (HT29 colon) of 5.83 µM and a TGI (HT29 colon) of over 50 µM. For the same compound, the GI50 (SK-OV-3 ovarian) was 1.48 µM, the TGI (SK-OV-3 ovarian) was 7.7 µM and the GI50 (ACHN renal) was 0.549 µM. The TGI (ACHN renal) was 7.22 µM, the GI50 (HL-60(TB) leukemia) was 0.63 µM and the TGI (HL-60(TB) leukemia) was 2.84 µM. It also gave a GI50 (NCI-H23 lung) of 1.42 µM, a TGI (NCI-H23 lung) of 9.08 µM and a GI50 (SNB-75 CNS) of 2.43 µM. The TGI (SNB-75 CNS) was 10.6 µM, the GI50 (SK-MEL-2 melanoma) was 3.4 µM and the TGI (SK-MEL-2 melanoma) was 14.1 µM. For the same compound, the GI50 (SW-620 colon) was 1.71 µM, the TGI (SW-620 colon) was over 50 µM and the GI50 (EKVX NSCLC) was 1.32 µM. It also gave a TGI (EKVX NSCLC) of 10.2 µM, a GI50 (SF-539 CNS) of 0.439 µM and a TGI (SF-539 CNS) of 5.32 µM. The GI50 (SK-MEL-5 melanoma) was 1.35 µM, the TGI (SK-MEL-5 melanoma) was 8.06 µM and the GI50 (RPMI-8226 leukemia) was 1.51 µM. It also gave a TGI (RPMI-8226 leukemia) of over 50 µM, a GI50 (DU-145 prostate) of 2.09 µM and a TGI (DU-145 prostate) of 12.6 µM. For the same compound, the GI50 (CAKI-1 renal) was 1.09 µM, the TGI (CAKI-1 renal) was 9.23 µM and the GI50 (SF-268 CNS) was 0.997 µM. It also gave a TGI (SF-268 CNS) of 12.1 µM, a GI50 (IGROV1 ovarian) of 0.951 µM and a TGI (IGROV1 ovarian) of 7.8 µM. The GI50 (PC-3 prostate) was 1.92 µM, the TGI (PC-3 prostate) was 11.1 µM and the GI50 (MALME-3M melanoma) was 1.11 µM. The TGI (MALME-3M melanoma) was 9.67 µM, the GI50 (MDA-MB-231 breast) was 2.27 µM and the TGI (MDA-MB-231 breast) was 16.6 µM. For the same compound, the GI50 (HCC-2998 colon) was 2.69 µM, the TGI (HCC-2998 colon) was over 50 µM and the GI50 (BT-549 breast) was 2.67 µM. It also gave a TGI (BT-549 breast) of 10 µM, a GI50 (NCI-H522 lung) of 1.28 µM and a TGI (NCI-H522 lung) of 8.24 µM. For the same compound, the GI50 (NCI-H460 lung) was 0.44 µM, the TGI (NCI-H460 lung) was 7.52 µM and the GI50 (SR leukemia) was 0.622 µM. It also gave a TGI (SR leukemia) of over 50 µM, a GI50 (CCRF-CEM leukemia) of 0.231 µM and a TGI (CCRF-CEM leukemia) of over 50 µM. The GI50 (HCT-116 colon) was 0.731 µM, the TGI (HCT-116 colon) was 8.52 µM and the GI50 (HCT-15 colon) was 0.282 µM. The TGI (HCT-15 colon) was 11.6 µM, the GI50 (T-47D breast) was 0.988 µM and the TGI (T-47D breast) was over 50 µM. The GI50 (HOP-62 NSCLC) was 0.894 µM, the TGI (HOP-62 NSCLC) was 8.3 µM and the GI50 (786-0 renal) was 1.48 µM. The TGI (786-0 renal) was 8.43 µM, the GI50 (SK-MEL-28 melanoma) was 1.02 µM and the TGI (SK-MEL-28 melanoma) was 8.64 µM. For the same compound, the GI50 (A498 renal) was 3.03 µM, the TGI (A498 renal) was 17.3 µM and the GI50 (NCI-H226 lung) was 4.1 µM. It also gave a TGI (NCI-H226 lung) of 18.1 µM, a GI50 (M14 melanoma) of 1.22 µM and a TGI (M14 melanoma) of 26 µM. The GI50 (SNB-19 CNS) was 1.49 µM, the TGI (SNB-19 CNS) was 11.3 µM and the GI50 (MOLT-4 leukemia) was 0.561 µM. It also gave a TGI (MOLT-4 leukemia) of over 50 µM, a GI50 (SN12C renal) of 2.02 µM and a TGI (SN12C renal) of 17.9 µM. The GI50 (OVCAR-5 ovarian) was 2.49 µM, the TGI (OVCAR-5 ovarian) was 29 µM and the GI50 (A549 NSCLC) was 1.11 µM. The TGI (A549 NSCLC) was 8.21 µM, the GI50 (KM12 colon) was 0.963 µM and the TGI (KM12 colon) was 8 µM. The GI50 (MDA-MB-435) was 1.58 µM, the TGI (MDA-MB-435) was 9.87 µM and the GI50 (RXF 393 renal) was 1.41 µM. The TGI (RXF 393 renal) was 6.74 µM, the GI50 (TK-10 renal) was 2.02 µM and the TGI (TK-10 renal) was 11.2 µM. For the same compound, the GI50 (OVCAR-3 ovarian) was 0.502 µM, the TGI (OVCAR-3 ovarian) was 7.08 µM and the GI50 (UACC-257 melanoma) was 1.76 µM. The TGI (UACC-257 melanoma) was 9.88 µM, the GI50 (HOP-92 NSCLC) was 1.66 µM and the TGI (HOP-92 NSCLC) was 10.3 µM. It also gave a GI50 (UACC-62 melanoma) of 0.917 µM, a TGI (UACC-62 melanoma) of 5.45 µM and a GI50 (OVCAR-4 ovarian) of 0.41 µM. For the same compound, the TGI (OVCAR-4 ovarian) was 7.87 µM, the GI50 (LOX IMVI melanoma) was 0.357 µM and the TGI (LOX IMVI melanoma) was 5.19 µM. It also gave a GI50 (NCI/ADR-RES ovarian) of 0.245 µM and a TGI (NCI/ADR-RES ovarian) of 6.84 µM.
